Biological target: T1, Malonyl-CoA decarboxylase, mitochondrial (Homo sapiens, UniProt O95822)
T1 sequence (O95822 whole entry): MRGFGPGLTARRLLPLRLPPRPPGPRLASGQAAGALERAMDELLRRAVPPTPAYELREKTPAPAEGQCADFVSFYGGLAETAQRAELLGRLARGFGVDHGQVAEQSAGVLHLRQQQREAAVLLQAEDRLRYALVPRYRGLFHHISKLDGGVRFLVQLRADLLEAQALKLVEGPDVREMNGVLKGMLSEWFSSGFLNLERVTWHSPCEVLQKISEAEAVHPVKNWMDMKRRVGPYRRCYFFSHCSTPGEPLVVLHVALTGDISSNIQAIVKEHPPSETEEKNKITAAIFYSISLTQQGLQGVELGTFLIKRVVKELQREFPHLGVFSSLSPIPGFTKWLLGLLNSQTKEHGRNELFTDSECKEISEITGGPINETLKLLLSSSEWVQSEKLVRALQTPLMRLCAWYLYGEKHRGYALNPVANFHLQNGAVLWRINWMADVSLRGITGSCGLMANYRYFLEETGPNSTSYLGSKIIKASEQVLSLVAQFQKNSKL
Assay: Inhibitory activity against recombinant human MCD MBP fusion protein

| SMILES | IC50 |
| --- | --- |
| CC(C)NC(=O)CCC1CN(Cc2cnc(C(C)C)n2-c2ccc(C(O)(C(F)(F)F)C(F)(F)F)cc2)CCO1 (stereo not drawn) | 1080 nM |
| CC(C)c1nc(C(F)(F)F)cn1-c1ccc(C(O)(C(F)(F)F)C(F)(F)F)cc1 | 567 nM |
| OCc1cnc(-c2ccccn2)n1-c1ccc(C(O)(C(F)(F)F)C(F)(F)F)cc1 | 791 nM |

The next compounds have a lower IC50 than those just listed; values first:

| IC50 | SMILES |
| --- | --- |
| 523 nM | CCC(C)c1ncc(/C=C/C(=O)O)n1-c1ccc(C(O)(C(F)(F)F)C(F)(F)F)cc1 (stereo not drawn) |
| 341 nM | CCC(C)c1ncc(CNC(C)C)n1-c1ccc(C(O)(C(F)(F)F)C(F)(F)F)cc1 (stereo not drawn) |
| 482 nM | CCCCNCc1cnc(C(C)C)n1-c1ccc(C(O)(C(F)(F)F)C(F)(F)F)cc1 |
| 243 nM | CC(C)c1nc(CO)cn1-c1ccc(C(O)(C(F)(F)F)C(F)(F)F)cc1 |
| 321 nM | CCC(C)c1ncc(CO)n1-c1ccc(C(O)(C(F)(F)F)C(F)(F)F)cc1 (stereo not drawn) |

From ChEMBL document CHEMBL1148627, “Design and synthesis of heterocyclic malonyl-CoA decarboxylase inhibitors” (Bioorg Med Chem Lett, 2006)
